Assay results published in patent US4238491A (priority 1977, dated 1980).

What was measured:
rats = assay: Sub-acute toxicity: histopathological examination; format: in vivo, rat (SD (SPF)); details: for Adrenal Hypertrophy: 5 rats
Excerpt: Rats were sacrificed under anesthesia with ether.
Five samples were randomly selected from each group, and paraffin-sectionedpreparations of the organs were made by a routine method. The preparations were stained with hematoxyline-eosin stain and Luxol-fast blue (central nervous system only) and examined histopathologically.

[1] = Change of MR content in blood (serum level); format: in vivo, dogs, rabbits and rats
Procedure: In case of oral administration, the animals were not permitted to eat for 24 hours, except for the experiment of biotransformation.

## COC(=O)[C@H]1[C@H]2C[C@@H]3c4[nH]c5cc(OC)ccc5c4CCN3C[C@H]2C[C@@H](O)[C@@H]1OC [MR, methylreserpate]
rats; 25.0 mg/kg
  Adrenal Hypertrophy: - - - + -
rats; 50.0 mg/kg
  Adrenal Hypertrophy: + + ++ + +
rats; 100.0 mg/kg
  Adrenal Hypertrophy: + + + + +
rats; 200.0 mg/kg, 5 dead rats
  Lung Alveolar wall Congestion: + ++ ++ ++ +++
  Lung Alveolar wall Pneumonia: ++ ++ ++ + +
  Lung Alveolus Pneumonia: - - - - -
  Lung Bronchus Bronchitis: - - - - -
  Pancreas: - - - - -
  Prostate: - - - - /
  Salivary Mucous gl.: - - - - -
  Salivary Serous gl. Atrophy: - - - - -
  Spleen Atrophy: - - - - -
  Spleen Congestion: ++ ++ ++ + +
  Spleen Haemosiderosis: + + + + +
  Stomach: - - - - -
  Testis: - - - - -
  Thyroid: / - - - /
  Thyroid Atrophy: +++ / +++ / /
  Urine bladder: - - - - -
rats; rat, in vivo
  Bone marrow Hypoplasia: - - - - -
  Central nerve: - - - - -
  Heart Endocardium: - - - - -
  Heart Epicardium: - - - - -
  Heart Myocardium Focal collapse: + - - + -
  Heart finding: focal collapse of heart muscles
  Hypophysis: - - - - -
  Intestine: - - - - -
  Kidney: - - - - -
  Liver Glisson's capsule Cell inf.: - + + + +
  Liver Kupffer cell Swelling: - - + + -
  Liver cell Degeneration: - - - - -
  Liver cell cord Cell inf.: - - + - -
  Liver cell cord Congestion: - - - - -
  Liver: Glisson's capsule or liver cell cords; Kupffer cells: lymphocytic cell infiltration in Glisson's capsule or liver cell cords, and swelling of Kupffer cells
  Lung Alveolar wall Congestion: - - - - -
  Lung Alveolar wall Pneumonia: - - - - -
  Lung Alveolus Pneumonia: - + - - -
  Lung Bronchus Bronchitis: - - - - +
  Lymph node: - - - - -
  Pancreas: - - - - -
  Prostate: - - - - -
  Salivary Mucous gl.: - - - - -
  Salivary Serous gl. Atrophy: - - - - -
  Spleen Atrophy: - - - - -
  Spleen Congestion: - - - - -
  Spleen Haemosiderosis: + + + + +
  Stomach: - - - - -
  Testis: - - - - -
  Thymus Atrophy: - - - - -
  Thyroid: - - - - -
  Urine bladder: - - - - -
  kidney histopathology: no pathological change
  other organs: No other pathological change
  pathological change of adrenal: reversible hypertrophy of cortex
  stomach mucous: no pathological change of stomach mucous
[1]; in vivo
  absorption in the digestive tract: readily absorbed
  correlation of serum level pattern with pattern of blood pressure decrease: high corralation
[1]; oral
  absorption from digestive tracts compared with RSP and RCN: more readily absorbed
[1]; serum, po, 10 mg/kg, after administration, read-out: time of maximum serum level
  Tmax: 1 to 2 h
